Source: ChEMBL document CHEMBL5137128, “Daphnoretin Arrests the Cell Cycle and Induces Apoptosis in Human Breast Cancer Cells” (J Nat Prod, 2022)
Activity calls are given as the source filed them. The calls are words filed in the database; no cut-off is given here.

Key:
MDA-MB-231 [1] = assay: Induction of cell cycle arrest in human MDA-MB-231 cells assessed as accumulation of S phase cells at 0.5 uM incubated for 24 hrs by propidium iodide staining based flow cytometry analysis (reference value: 28.71 %); type: functional
MCF7 [2] = assay: Induction of cell cycle arrest in human MCF7 cells assessed as accumulation of S phase cells at 1 uM incubated for 24 hrs by propidium iodide staining based flow cytometry analysis (reference value: 27.84 %); type: functional
MDA-MB-231 [3] = assay: Induction of cell cycle arrest in human MDA-MB-231 cells assessed as G0-G1 phase cells at 1 uM incubated for 24 hrs by propidium iodide staining based flow cytometry analysis (reference value: 66.84 %); type: functional
MCF7 [4] = assay: Induction of cell cycle arrest in human MCF7 cells assessed as G2/M phase cells at 2 uM incubated for 24 hrs by propidium iodide staining based flow cytometry analysis (reference value: 0.86 %); type: functional
MCF7 [5] = assay: Induction of apoptosis in human MCF7 cells assessed as nuclear condensation at 1 to 4 uM incubated for 24 hrs by Hoechst 33258 staining based light microscopic analysis; type: functional, cell-based; details: dose 1-4 µM
MDA-MB-231 [6] = assay: Antiproliferative activity human MDA-MB-231 cells assessed as inhibition of cell proliferation incubated for 24 hrs by MTT assay; type: functional, cell-based; details: MDA-MB-231, 24 h
MDA-MB-231 [7] = assay: Induction of cell cycle arrest in human MDA-MB-231 cells assessed as G0-G1 phase cells at 2 uM incubated for 24 hrs by propidium iodide staining based flow cytometry analysis (reference value: 66.84 %); type: functional
MCF7 [8] = assay: Antiproliferative activity human MCF7 cells assessed as inhibition of cell proliferation incubated for 24 hrs by MTT assay; type: functional, cell-based; details: MCF7, 24 h
MDA-MB-231 [9] = assay: Induction of morphological changes in human MDA-MB-231 cells assessed as decrease in cell numbers at 0.5 to 2 uM by electron microscopic analysis; type: functional, cell-based; details: dose 0.5-2 µM
MCF7 [10] = assay: Induction of cell cycle arrest in human MCF7 cells assessed as downregulation of CDK2 expression at 1 to 4 uM measured upto 24 hrs by Western blot analysis relative to control; type: functional, cell-based; details: dose 1-4 µM
MDA-MB-231 [11] = assay: Induction of cell cycle arrest in human MDA-MB-231 cells assessed as downregulation of CDK2 expression at 0.5 to 2 uM measured upto 24 hrs by Western blot analysis relative to control; type: functional, cell-based; details: dose 0.5-2 µM
MCF7 [12] = assay: Induction of cell cycle arrest in human MCF7 cells assessed as accumulation of S phase cells at 4 uM incubated for 24 hrs by propidium iodide staining based flow cytometry analysis (reference value: 27.84 %); type: functional
MCF7 [13] = assay: Induction of cell cycle arrest in human MCF7 cells assessed as G0-G1 phase cells at 4 uM incubated for 24 hrs by propidium iodide staining based flow cytometry analysis (reference value: 71.30 %); type: functional
MDA-MB-231 [14] = assay: Induction of apoptosis in human MDA-MB-231 cells assessed as apoptotic bodies at 0.5 to 2 uM incubated for 24 hrs by Hoechst 33258 staining based light microscopic analysis; type: functional, cell-based; details: dose 0.5-2 µM
MDA-MB-231 [15] = assay: Induction of cell cycle arrest in human MDA-MB-231 cells assessed as G2/M phase cells at 2 uM incubated for 24 hrs by propidium iodide staining based flow cytometry analysis (reference value: 4.44 %); type: functional
MDA-MB-231 [16] = assay: Induction of cell cycle arrest in human MDA-MB-231 cells assessed as G2/M phase cells at 1 uM incubated for 24 hrs by propidium iodide staining based flow cytometry analysis (reference value: 4.44 %); type: functional
MDA-MB-231 [17] = assay: Induction of morphological changes in human MDA-MB-231 cells assessed as deformed cells at 0.5 to 2 uM by electron microscopic analysis; type: functional, cell-based; details: dose 0.5-2 µM
MCF7 [18] = assay: Inhibition of PI3K phosphorylation in human MCF7 cells at 1 to 4 uM by Western blot analysis; type: cell-based; details: dose 1-4 µM
MDA-MB-231 [19] = assay: Induction of apoptosis in human MDA-MB-231 cells assessed as increase in Bax level at 0.5 to 2 uM measured upto 24 hrs by Western blot analysis; type: functional, cell-based; details: dose 0.5-2 µM
MCF7 [20] = assay: Induction of cell cycle arrest in human MCF7 cells assessed as G0-G1 phase cells at 2 uM incubated for 24 hrs by propidium iodide staining based flow cytometry analysis (reference value: 71.30 %); type: functional
MCF7 [21] = assay: Induction of cell cycle arrest in human MCF7 cells assessed as G2/M phase cells at 4 uM incubated for 24 hrs by propidium iodide staining based flow cytometry analysis (reference value: 0.86 %); type: functional
MCF7 [22] = assay: Induction of apoptosis in human MCF7 cells assessed as increase in cleaved caspase-3 level at 1 to 4 uM measured upto 24 hrs by Western blot analysis; type: functional, cell-based; details: dose 1-4 µM
MCF7 [23] = assay: Induction of morphological changes in human MCF7 cells assessed as cell shrinkage at 1 to 4 uM by electron microscopic analysis; type: functional, cell-based; details: dose 1-4 µM
MDA-MB-231 [24] = assay: Induction of apoptosis in human MDA-MB-231 cells assessed as increase in total apoptotic rate at 0.5 to 2 uM incubated for 24 hrs by propidium iodide staining based flow cytometry analysis relative to control; type: functional, cell-based; details: dose 0.5-2 µM
MDA-MB-231 [25] = assay: Induction of cell cycle arrest in human MDA-MB-231 cells assessed as G2/M phase cells at 0.5 uM incubated for 24 hrs by propidium iodide staining based flow cytometry analysis (reference value: 4.44 %); type: functional
MCF7 [26] = assay: Induction of apoptosis in human MCF7 cells assessed as decrease in Bcl-2 level at 1 to 4 uM measured upto 24 hrs by Western blot analysis; type: functional, cell-based; details: dose 1-4 µM
MDA-MB-231 [27] = assay: Induction of apoptosis in human MDA-MB-231 cells assessed as increase in cleaved caspase-9 level at 0.5 to 2 uM measured upto 24 hrs by Western blot analysis; type: functional, cell-based; details: dose 0.5-2 µM
MCF7 [28] = assay: Inhibition of AKT phosphorylation in human MCF7 cells at 1 to 4 uM by Western blot analysis; type: cell-based; details: dose 1-4 µM
MDA-MB-231 [29] = assay: Induction of apoptosis in human MDA-MB-231 cells assessed as increase in cleaved caspase-3 level at 0.5 to 2 uM measured upto 24 hrs by Western blot analysis; type: functional, cell-based; details: dose 0.5-2 µM
MCF7 [30] = assay: Induction of apoptosis in human MCF7 cells assessed as increase in total apoptotic rate at 1 to 4 uM incubated for 24 hrs by propidium iodide staining based flow cytometric analysis; type: functional, cell-based; details: dose 1-4 µM
MDA-MB-231 [31] = assay: Induction of cell cycle arrest in human MDA-MB-231 cells assessed as G0-G1 phase cells at 0.5 uM incubated for 24 hrs by propidium iodide staining based flow cytometry analysis (reference value: 66.84 %); type: functional
MCF7 [32] = assay: Induction of apoptosis in human MCF7 cells assessed as chromatin condensation at 1 to 4 uM incubated for 24 hrs by Hoechst 33258 staining based light microscopic analysis; type: functional, cell-based; details: dose 1-4 µM
MDA-MB-231 [33] = assay: Induction of apoptosis in human MDA-MB-231 cells assessed as nuclear condensation at 0.5 to 2 uM incubated for 24 hrs by Hoechst 33258 staining based light microscopic analysis; type: functional, cell-based; details: dose 0.5-2 µM
MCF7 [34] = assay: Induction of morphological changes in human MCF7 cells assessed as deformed cells at 1 to 4 uM by electron microscopic analysis; type: functional, cell-based; details: dose 1-4 µM
MDA-MB-231 [35] = assay: Inhibition of PI3K phosphorylation in human MDA-MB-231 cells at 0.5 to 2 uM by Western blot analysis; type: cell-based; details: dose 0.5-2 µM
MDA-MB-231 [36] = assay: Induction of morphological changes in human MDA-MB-231 cells assessed as cell shrinkage at 0.5 to 2 uM by electron microscopic analysis; type: functional, cell-based; details: dose 0.5-2 µM
MCF7 [37] = assay: Induction of morphological changes in human MCF7 cells assessed as decrease in cell numbers at 1 to 4 uM by electron microscopic analysis; type: functional, cell-based; details: dose 1-4 µM
MCF7 [38] = assay: Induction of apoptosis in human MCF7 cells assessed as increase in Bax level at 1 to 4 uM measured upto 24 hrs by Western blot analysis; type: functional, cell-based; details: dose 1-4 µM
MCF7 [39] = assay: Induction of cell cycle arrest in human MCF7 cells assessed as accumulation of S phase cells at 2 uM incubated for 24 hrs by propidium iodide staining based flow cytometry analysis (reference value: 27.84 %); type: functional
MCF7 [40] = assay: Induction of apoptosis in human MCF7 cells assessed as apoptotic bodies at 1 to 4 uM incubated for 24 hrs by Hoechst 33258 staining based light microscopic analysis; type: functional, cell-based; details: dose 1-4 µM
MDA-MB-231 [41] = assay: Induction of cell cycle arrest in human MDA-MB-231 cells assessed as accumulation of S phase cells at 1 uM incubated for 24 hrs by propidium iodide staining based flow cytometry analysis (reference value: 28.71 %); type: functional
MCF7 [42] = assay: Antiproliferative activity human MCF7 cells assessed as inhibition of cell proliferation at 0.1 to 8 uM incubated for 48 hrs by MTT assay; type: functional, cell-based; details: dose 0.1-8 µM
MDA-MB-231 [43] = assay: Induction of cell cycle arrest in human MDA-MB-231 cells assessed as downregulation of cyclin E expression at 0.5 to 2 uM measured upto 24 hrs by Western blot analysis relative to control; type: functional, cell-based; details: dose 0.5-2 µM
MDA-MB-231 [44] = assay: Inhibition of AKT phosphorylation in human MDA-MB-231 cells at 0.5 to 2 uM by Western blot analysis; type: cell-based; details: dose 0.5-2 µM
MDA-MB-231 [45] = assay: Induction of apoptosis in human MDA-MB-231 cells assessed as chromatin condensation at 0.5 to 2 uM incubated for 24 hrs by Hoechst 33258 staining based light microscopic analysis; type: functional, cell-based; details: dose 0.5-2 µM
MDA-MB-231 [46] = assay: Induction of cell cycle arrest in human MDA-MB-231 cells assessed as accumulation of S phase cells at 2 uM incubated for 24 hrs by propidium iodide staining based flow cytometry analysis (reference value: 28.71 %); type: functional
MCF7 [47] = assay: Induction of cell cycle arrest in human MCF7 cells assessed as downregulation of cyclin E expression at 1 to 4 uM measured upto 24 hrs by Western blot analysis relative to control; type: functional, cell-based; details: dose 1-4 µM
MDA-MB-231 [48] = assay: Antiproliferative activity human MDA-MB-231 cells assessed as inhibition of cell proliferation at 0.1 to 8 uM incubated for 48 hrs by MTT assay; type: functional, cell-based; details: dose 0.1-8 µM
MCF7 [49] = assay: Induction of cell cycle arrest in human MCF7 cells assessed as G0-G1 phase cells at 1 uM incubated for 24 hrs by propidium iodide staining based flow cytometry analysis (reference value: 71.30 %); type: functional
MCF7 [50] = assay: Induction of apoptosis in human MCF7 cells assessed as increase in cleaved caspase-9 level at 1 to 4 uM measured upto 24 hrs by Western blot analysis; type: functional, cell-based; details: dose 1-4 µM
MDA-MB-231 [51] = assay: Induction of apoptosis in human MDA-MB-231 cells assessed as decrease in Bcl-2 level at 0.5 to 2 uM measured upto 24 hrs by Western blot analysis; type: functional, cell-based; details: dose 0.5-2 µM
MCF7 [52] = assay: Induction of cell cycle arrest in human MCF7 cells assessed as G2/M phase cells at 1 uM incubated for 24 hrs by propidium iodide staining based flow cytometry analysis (reference value: 0.86 %); type: functional

IC50 (MDA-MB-231 [6]): 1000 nM | IC50 (MCF7 [8]): 2000 nM
SMILES: COc1cc2cc(Oc3ccc4ccc(=O)oc4c3)c(=O)oc2cc1O [DAPHNORETIN]
Activity (MDA-MB-231 [1]): 37.3% | Activity (MCF7 [2]): 38.59% | Activity (MDA-MB-231 [3]): 46% | Activity (MCF7 [4]): 5.32% | Activity (MCF7 [5]): Active | Activity (MDA-MB-231 [7]): 36.99% | Activity (MDA-MB-231 [9]): Active | Activity (MCF7 [10]): Active | Activity (MDA-MB-231 [11]): Active | Activity (MCF7 [12]): 46.53% | Activity (MCF7 [13]): 51.27% | Activity (MDA-MB-231 [14]): Active | Activity (MDA-MB-231 [15]): 15.29% | Activity (MDA-MB-231 [16]): 8.43% | Activity (MDA-MB-231 [17]): Active | inhibition (MCF7 [18]): Active | Activity (MDA-MB-231 [19]): Active | Activity (MCF7 [20]): 50.95% | Activity (MCF7 [21]): 2.2% | Activity (MCF7 [22]): Active | Activity (MCF7 [23]): Active | Activity (MDA-MB-231 [24]): Active | Activity (MDA-MB-231 [25]): 9.33% | Activity (MCF7 [26]): Active | Activity (MDA-MB-231 [27]): Active | inhibition (MCF7 [28]): Active | Activity (MDA-MB-231 [29]): Active | Activity (MCF7 [30]): Active | Activity (MDA-MB-231 [31]): 53.37% | Activity (MCF7 [32]): Active | Activity (MDA-MB-231 [33]): Active | Activity (MCF7 [34]): Active | inhibition (MDA-MB-231 [35]): Active | Activity (MDA-MB-231 [36]): Active | Activity (MCF7 [37]): Active | Activity (MCF7 [38]): Active | Activity (MCF7 [39]): 43.73% | Activity (MCF7 [40]): Active | Activity (MDA-MB-231 [41]): 45.58% | Activity (MCF7 [42]): Active | Activity (MDA-MB-231 [43]): Active | inhibition (MDA-MB-231 [44]): Active | Activity (MDA-MB-231 [45]): Active | Activity (MDA-MB-231 [46]): 47.72% | Activity (MCF7 [47]): Active | Activity (MDA-MB-231 [48]): Active | Activity (MCF7 [49]): 59.49% | Activity (MCF7 [50]): Active | Activity (MDA-MB-231 [51]): Active | Activity (MCF7 [52]): 1.92%
